Data set [1] addresses full-length FLAG-tagged B-Raf(V600E) (Homo sapiens (Human), UniProt P15056, V600E). The experiment in a line: BRAF V600E enzyme assay (TR-FRET competitive displacement). The data set is classed as binding. In outline: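 Displacement of 50 nM Tracer 1710 from 5 nM full-length N-terminally FLAG-tagged B-Raf(V600E), detected by TR-FRET with 0.5 nM Eu anti-FLAG antibody, in 25 mM HEPES pH 7.4, 10 mM MgCl2, 2% DMSO; 60 min at ~22 °C. Compounds 11-point, 3-fold from 10 μM; IC50 from 4-parameter fit at 50 POC.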
For orientation: In TR-FRET formats the signal depends on donor and acceptor labels being close together.

A short description of data set [2]: MDR1 LLC-PK1 and BCRP MDCKII permeability assay: permeability coefficient (Papp). The format is in vitro ADME. The text has this:
(§1) Final organic concentration in the assay was 1%.

The target in another data set is P-gp (MDR1) (Homo sapiens (Human), UniProt P08183). Put plainly: MDR1 LLC-PK1 permeability assay: efflux ratio. The data set is classed as in vitro ADME. Particulars: pig.
Excerpt: as §1

A further data set concerns H1755 cells. Put plainly: Cellular phospho-ERK inhibition assay in H1755 cells. Particulars: Homo sapiens, NCI-H1755, 2 hours treatment, read-out: H1755 Cell IC50. The format is cell-based. In outline:
(§2)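 A375 (DMEM) or H1755 (RPMI) cells in 10% FBS treated 2 h at 37 °C with 9-point series, 66 pM–10 μM, 0.25% DMSO. Phospho-ERK1/2 (Thr202/Tyr204) measured by In Cell Western, normalised to GAPDH and to DMSO and 10 μM binimetinib controls; IC50 by 4-parameter fit.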

Another data set deals with BCRP (Homo sapiens (Human), UniProt Q9UNQ0). The experiment in a line: BCRP MDCKII permeability assay: efflux ratio. Particulars: dog. The format is in vitro ADME.
Another data set concerns A375 cells. The experiment in a line: Cellular phospho-ERK inhibition assay in A375 cells. The format is cell-based. Conditions: Homo sapiens, A-375, A375 cells (head prints A357), 2 hours treatment, read-out: A357 cell IC50. The method, boiled down: as §2
Where [3] appears, read: averaged IC50, TR-FRET tracer displacement, 60 min.

Where a name gives a salt, the structure may show the parent alone. Read-outs that look alike come from different tables or passages of the source.

Chain of BCRP (Q9UNQ0 whole entry): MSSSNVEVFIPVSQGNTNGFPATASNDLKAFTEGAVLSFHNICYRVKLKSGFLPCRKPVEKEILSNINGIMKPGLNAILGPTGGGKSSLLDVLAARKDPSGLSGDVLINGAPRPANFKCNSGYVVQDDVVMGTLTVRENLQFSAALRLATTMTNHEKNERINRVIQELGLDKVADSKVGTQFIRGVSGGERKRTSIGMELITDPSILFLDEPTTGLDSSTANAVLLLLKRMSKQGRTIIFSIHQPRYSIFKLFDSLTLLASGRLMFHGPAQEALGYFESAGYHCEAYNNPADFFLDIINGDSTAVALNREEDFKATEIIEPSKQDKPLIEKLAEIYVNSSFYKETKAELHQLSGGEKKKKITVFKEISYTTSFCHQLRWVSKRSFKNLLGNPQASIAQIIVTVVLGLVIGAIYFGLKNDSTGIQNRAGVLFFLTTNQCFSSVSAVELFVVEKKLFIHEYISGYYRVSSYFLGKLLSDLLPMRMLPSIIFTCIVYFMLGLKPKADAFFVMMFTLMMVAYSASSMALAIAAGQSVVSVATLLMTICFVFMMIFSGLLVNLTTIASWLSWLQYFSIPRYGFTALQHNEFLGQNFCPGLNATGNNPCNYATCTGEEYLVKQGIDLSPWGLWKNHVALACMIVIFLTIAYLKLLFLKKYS
Chain of full-length FLAG-tagged B-Raf(V600E) (P15056 whole entry V600E): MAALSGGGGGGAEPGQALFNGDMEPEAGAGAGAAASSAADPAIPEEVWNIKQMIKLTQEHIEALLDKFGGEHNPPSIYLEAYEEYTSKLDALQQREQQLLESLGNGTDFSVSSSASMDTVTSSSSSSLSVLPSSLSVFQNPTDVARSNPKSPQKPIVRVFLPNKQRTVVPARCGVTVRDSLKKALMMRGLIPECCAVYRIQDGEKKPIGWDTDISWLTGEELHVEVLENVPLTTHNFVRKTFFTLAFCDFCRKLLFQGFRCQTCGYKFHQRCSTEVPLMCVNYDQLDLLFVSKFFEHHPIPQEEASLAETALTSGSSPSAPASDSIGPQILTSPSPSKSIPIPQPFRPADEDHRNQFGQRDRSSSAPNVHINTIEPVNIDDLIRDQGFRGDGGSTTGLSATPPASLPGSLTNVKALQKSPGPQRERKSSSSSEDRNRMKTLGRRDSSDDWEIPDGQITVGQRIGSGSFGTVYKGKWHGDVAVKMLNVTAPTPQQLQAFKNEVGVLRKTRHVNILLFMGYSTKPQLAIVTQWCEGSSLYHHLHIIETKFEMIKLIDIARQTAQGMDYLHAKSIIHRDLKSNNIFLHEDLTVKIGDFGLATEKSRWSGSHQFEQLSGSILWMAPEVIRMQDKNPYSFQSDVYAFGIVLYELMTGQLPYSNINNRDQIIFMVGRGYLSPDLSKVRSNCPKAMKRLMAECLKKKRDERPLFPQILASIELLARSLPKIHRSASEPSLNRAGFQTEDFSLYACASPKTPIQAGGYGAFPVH
Chain of P-gp (MDR1) (P08183 whole entry, species assumed): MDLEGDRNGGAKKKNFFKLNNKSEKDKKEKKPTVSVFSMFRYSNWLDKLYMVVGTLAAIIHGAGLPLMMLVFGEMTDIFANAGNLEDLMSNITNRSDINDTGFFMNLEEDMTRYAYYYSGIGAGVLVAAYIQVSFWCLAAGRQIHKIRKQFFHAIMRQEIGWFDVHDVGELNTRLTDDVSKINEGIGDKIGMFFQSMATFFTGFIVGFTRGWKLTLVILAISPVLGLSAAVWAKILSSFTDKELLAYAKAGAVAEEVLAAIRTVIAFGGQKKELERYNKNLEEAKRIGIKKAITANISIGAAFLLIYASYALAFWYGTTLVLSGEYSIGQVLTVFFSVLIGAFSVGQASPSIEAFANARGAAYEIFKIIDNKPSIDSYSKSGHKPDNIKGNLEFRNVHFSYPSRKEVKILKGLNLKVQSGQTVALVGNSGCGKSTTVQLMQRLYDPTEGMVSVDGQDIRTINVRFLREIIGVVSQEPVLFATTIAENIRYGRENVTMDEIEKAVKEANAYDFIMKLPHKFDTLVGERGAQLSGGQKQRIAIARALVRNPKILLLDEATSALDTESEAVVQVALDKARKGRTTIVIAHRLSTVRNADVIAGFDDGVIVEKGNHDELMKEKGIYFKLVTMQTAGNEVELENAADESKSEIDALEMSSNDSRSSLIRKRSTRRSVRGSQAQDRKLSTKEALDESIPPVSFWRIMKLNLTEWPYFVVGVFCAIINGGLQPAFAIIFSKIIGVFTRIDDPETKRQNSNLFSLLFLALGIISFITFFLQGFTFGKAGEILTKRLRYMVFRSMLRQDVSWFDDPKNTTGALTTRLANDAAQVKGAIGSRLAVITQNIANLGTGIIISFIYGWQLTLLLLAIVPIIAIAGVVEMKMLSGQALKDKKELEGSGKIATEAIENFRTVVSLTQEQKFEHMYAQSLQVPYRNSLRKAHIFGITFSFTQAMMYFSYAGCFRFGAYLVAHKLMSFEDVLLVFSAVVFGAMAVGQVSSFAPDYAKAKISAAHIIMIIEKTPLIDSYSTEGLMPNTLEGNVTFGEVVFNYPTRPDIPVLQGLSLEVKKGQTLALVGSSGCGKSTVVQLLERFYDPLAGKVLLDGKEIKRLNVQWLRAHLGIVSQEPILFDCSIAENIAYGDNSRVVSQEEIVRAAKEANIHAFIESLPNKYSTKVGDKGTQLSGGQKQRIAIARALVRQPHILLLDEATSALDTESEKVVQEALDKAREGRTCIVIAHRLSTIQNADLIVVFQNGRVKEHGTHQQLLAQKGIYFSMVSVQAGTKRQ

Take `[2H]C([2H])([2H])O[C@@H]1CCN(S(=O)(=O)Nc2ccc(F)c(Nc3ccc4ncn(C)c(=O)c4c3Cl)c2Cl)C1` [Example 53, (R)-N-(2-chloro-3-((5-chloro-3-methyl-4-oxo-3,4-dihydroquinazolin-6-yl)amino)-4-fluorophenyl)-3-(methoxy-d3)pyrrolidine-1-sulfonamide trifluoroacetate]: the IC50 in data set [1] (setting [3]) was 7 nM; in the data set on H1755 cells it was 25 nM; in the data set on A375 cells, 6 nM. In addition, the Papp at 2 h, 1 µM in data set [2] came to 30 ×10⁻⁶ cm/s. For the same compound, the efflux ratio at 2 h, 1 µM on P-gp (MDR1) stood at 2; at BCRP, 1.8.
Take `[2H]C([2H])([2H])O[C@@H]1CCN(S(=O)(=O)Nc2ccc(F)c(Nc3ccc4ncn(C)c(=O)c4c3F)c2Cl)C1` [Example 54, (R)-N-(2-chloro-4-fluoro-3-((5-fluoro-3-methyl-4-oxo-3,4-dihydroquinazolin-6-yl)amino)phenyl)-3-(methoxy-d3)pyrrolidine-1-sulfonamide trifluoroacetate]: the figures for the IC50 (in data set [1] (setting [3]); with H1755 cells; with A375 cells) were 17 nM, 33 nM and 4 nM, respectively. Also, in data set [2], the Papp at 2 h, 1 µM came to 31 ×10⁻⁶ cm/s. Moreover, the efflux ratio at 2 h, 1 µM on P-gp (MDR1) was 3.6; at BCRP, 3.
Turning to `[2H]C([2H])([2H])O[C@@H]1CCN(S(=O)(=O)Nc2ccc(F)c(Nc3ccc4ncn(C)c(=O)c4c3C)c2Cl)C1` [Example 55, (R)-N-(2-chloro-3-((3,5-dimethyl-4-oxo-3,4-dihydroquinazolin-6-yl)amino)-4-fluorophenyl)-3-(methoxy-d3)pyrrolidine-1-sulfonamide trifluoroacetate], the IC50 in data set [1] (setting [3]) is 45 nM; in the data set with H1755 cells, 124 nM; in the data set with A375 cells it was 27 nM. Also, the Papp at 2 h, 1 µM in data set [2] amounted to 33 ×10⁻⁶ cm/s. In addition, the efflux ratio at 2 h, 1 µM at P-gp (MDR1) amounted to 1.5; at BCRP it was 1.
In the case of `Cc1c(Oc2c(F)ccc(NS(=O)(=O)N3CC[C@@H](OC(F)F)C3)c2Cl)ccc2ncn(C)c(=O)c12.O=C(O)C(F)(F)F` [Example 57, (R)-N-(2-chloro-3-((3,5-dimethyl-4-oxo-3,4-dihydroquinazolin-6-yl)oxy)-4-fluorophenyl)-3-(difluoromethoxy)pyrrolidine-1-sulfonamide trifluoroacetate], the IC50 in data set [1] turned out to be 3 nM; in the data set on H1755 cells, 61 nM; in the data set with A375 cells, 27 nM. This compound showed a Papp at 2 h, 1 µM in data set [2] of 25 ×10⁻⁶ cm/s. Moreover, the efflux ratio at 2 h, 1 µM on P-gp (MDR1) and at BCRP was 0.9 each time.
With `Cn1cnc2ccc(Nc3cc(Cl)cc(NS(=O)(=O)N4CC[C@@H](F)C4)c3F)c(F)c2c1=O` [Example 58, (R)-N-(5-chloro-2-fluoro-3-((5-fluoro-3-methyl-4-oxo-3,4-dihydroquinazolin-6-yl)amino)phenyl)-3-fluoropyrrolidine-1-sulfonamide trifluoroacetate], the IC50 was determined as 3 nM in data set [1] (setting [3]), 32 nM in the data set on H1755 cells and 6 nM in the data set on A375 cells. In data set [2], this compound had a Papp at 2 h, 1 µM of 27 ×10⁻⁶ cm/s. Also, the efflux ratio at 2 h, 1 µM worked out at 5.3 on P-gp (MDR1) and 7.3 at BCRP.
On to `Cn1cnc2ccc(Oc3c(F)ccc(NS(=O)(=O)N4C[C@@H](F)[C@@H](F)C4)c3Cl)c(Cl)c2c1=O` [Example 59, cis-N-(2-chloro-3-((5-chloro-3-methyl-4-oxo-3,4-dihydroquinazolin-6-yl)oxy)-4-fluorophenyl)-3,4-difluoropyrrolidine-1-sulfonamide], for which the IC50 in data set [1] was found to be 1 nM; in the data set with H1755 cells, 60 nM; with A375 cells it was 10 nM. The Papp at 2 h, 1 µM in data set [2] is 31 ×10⁻⁶ cm/s. Moreover, the efflux ratio at 2 h, 1 µM on P-gp (MDR1) stood at 4.9; on BCRP, 12.9.
`Cn1cnc2ccc(Oc3c(F)ccc(NS(=O)(=O)N4CC[C@@H](OC(F)F)C4)c3Cl)c(Cl)c2c1=O` [Example 60, (R)-N-(2-chloro-3-((5-chloro-3-methyl-4-oxo-3,4-dihydroquinazolin-6-yl)oxy)-4-fluorophenyl)-3-(difluoromethoxy)pyrrolidine-1-sulfonamide]: the figures for the IC50 (in data set [1]; in the data set on H1755 cells; in the data set on A375 cells) were 2 nM, 61 nM and 7 nM, respectively. In addition, the Papp at 2 h, 1 µM in data set [2] turned out to be 18 ×10⁻⁶ cm/s. The efflux ratio at 2 h, 1 µM on P-gp (MDR1) turned out to be 3.1; at BCRP, 1.6.
Regarding `Cn1cnc2ccc(Oc3c(F)ccc(NS(=O)(=O)N4CCC(F)(F)C4)c3Cl)c(Cl)c2c1=O` [Example 61, N-(2-chloro-3-((5-chloro-3-methyl-4-oxo-3,4-dihydroquinazolin-6-yl)oxy)-4-fluorophenyl)-3,3-difluoropyrrolidine-1-sulfonamide], the IC50 was determined as 2 nM in data set [1], 194 nM with H1755 cells and 25 nM in the data set with A375 cells. The compound further yielded a Papp at 2 h, 1 µM in data set [2] of 29 ×10⁻⁶ cm/s. Also, the results for the efflux ratio at 2 h, 1 µM at P-gp (MDR1) and on BCRP were 2.2 and 3.3, respectively.
Take `CC[C@@H]1CCN(S(=O)(=O)Nc2ccc(F)c(Nc3ccc4ncn(C)c(=O)c4c3F)c2Cl)C1` [Example 62, (R)-N-(2-chloro-4-fluoro-3-((5-fluoro-3-methyl-4-oxo-3,4-dihydroquinazolin-6-yl)amino)phenyl)-3-ethylpyrrolidine-1-sulfonamide trifluoroacetate]: the IC50 in data set [1] (setting [3]) worked out at 13 nM; in the data set with H1755 cells it was 185 nM; with A375 cells, 31 nM. Also, the Papp at 2 h, 1 µM in data set [2] is 29 ×10⁻⁶ cm/s. In addition, the efflux ratio at 2 h, 1 µM on P-gp (MDR1) is 1.6; at BCRP, 1.
Regarding `Cn1cnc2ccc(Oc3c(F)ccc(NS(=O)(=O)N4CCC(F)(F)C4)c3Cl)c(F)c2c1=O` [Example 63, N-(2-chloro-4-fluoro-3-((5-fluoro-3-methyl-4-oxo-3,4-dihydroquinazolin-6-yl)oxy)phenyl)-3,3-difluoropyrrolidine-1-sulfonamide], the IC50 was found to be 1 nM in data set [1], 84 nM with H1755 cells and 7 nM with A375 cells. Also, the Papp at 2 h, 1 µM in data set [2] is 39 ×10⁻⁶ cm/s. Further, the efflux ratio at 2 h, 1 µM on P-gp (MDR1) worked out at 1.7; at BCRP, 3.6.
With `Cn1cnc2ccc(Oc3c(F)ccc(NS(=O)(=O)N4CC5CC5C4)c3Cl)c(F)c2c1=O` (stereo not drawn) [Example 65, N-(2-chloro-4-fluoro-3-((5-fluoro-3-methyl-4-oxo-3,4-dihydroquinazolin-6-yl)oxy)phenyl)-3-azabicyclo[3.1.0]hexane-3-sulfonamide], the values for the IC50 (in data set [1]; in the data set on H1755 cells; with A375 cells) were 2 nM, 127 nM and 13 nM, respectively. Further, the Papp at 2 h, 1 µM in data set [2] is 28 ×10⁻⁶ cm/s. Moreover, the results for the efflux ratio at 2 h, 1 µM on P-gp (MDR1) and on BCRP were 1.3 and 1, respectively.
In the case of `Cn1cnc2ccc(Oc3c(F)ccc(NS(=O)(=O)N4CC[C@@H](OC(F)F)C4)c3Cl)c(F)c2c1=O` [Example 66, (R)-N-(2-chloro-4-fluoro-3-((5-fluoro-3-methyl-4-oxo-3,4-dihydroquinazolin-6-yl)oxy)phenyl) 3-(difluoromethoxy)pyrrolidine-1-sulfonamide], the figures for the IC50 (in data set [1]; in the data set on H1755 cells; in the data set on A375 cells) were 4 nM, 44 nM and 6 nM, respectively. Moreover, the Papp at 2 h, 1 µM in data set [2] amounted to 25 ×10⁻⁶ cm/s. For the same compound, the figures for the efflux ratio at 2 h, 1 µM on P-gp (MDR1) and at BCRP were 2.2 and 3.1, respectively.
`Cn1cnc2ccc(Oc3c(F)ccc(NS(=O)(=O)N4CC5CC4C5)c3Cl)c(Cl)c2c1=O` [Example 67, N-(2-chloro-3-((5-chloro-3-methyl-4-oxo-3,4-dihydroquinazolin-6-yl)oxy)-4-fluorophenyl)-2-azabicyclo[2.1.1]hexane-2-sulfonamide]: the results for the IC50 (in data set [1]; in the data set on H1755 cells; in the data set on A375 cells) were 2 nM, 76 nM and 8 nM, respectively. In data set [2], this compound showed a Papp at 2 h, 1 µM of 24 ×10⁻⁶ cm/s. Moreover, the efflux ratio at 2 h, 1 µM at P-gp (MDR1) came to 1.4; on BCRP, 1.
Regarding `CCN(C)S(=O)(=O)Nc1ccc(F)c(Oc2ccc3ncn(C)c(=O)c3c2C)c1Cl` [Example 68, 6-(2-Chloro-3-{[ethyl(methyl)sulfamoyl]amino}-6-fluorophenoxy)-3,5-dimethyl-3,4 dihydroquinazolin-4-one], the values for the IC50 (in data set [1]; in the data set on H1755 cells; with A375 cells) were 21 nM, 286 nM and 64 nM, respectively. This compound displayed an apparent permeability (Papp) at 2 h, 1 µM in data set [2] of 25 ×10⁻⁶ cm/s. The efflux ratio at 2 h, 1 µM on P-gp (MDR1) stood at 0.7; at BCRP, 1.
For the compound `Cc1c(Oc2c(F)ccc(NS(=O)(=O)N3CCCC3)c2Cl)ccc2ncn(C)c(=O)c12` [Example 69, N-(2-chloro-3-((3,5-dimethyl-4-oxo-3,4-dihydroquinazolin-6-yl)oxy)-4-fluorophenyl)pyrrolidine-1-sulfonamide], the values for the IC50 (in data set [1]; with H1755 cells; with A375 cells) were 7 nM, 88 nM and 22 nM, respectively. Moreover, the Papp at 2 h, 1 µM in data set [2] was determined as 25 ×10⁻⁶ cm/s. Moreover, the efflux ratio at 2 h, 1 µM on P-gp (MDR1) was determined as 0.8; at BCRP it was 0.9.

Usually IC50 stands for the point on the concentration scale where inhibition reaches its midpoint. For orientation: Papp means the rate of passage across a membrane or cell layer, normalised by area and donor concentration. Low values mean slow passage, high ones fast passage. In general, efflux ratio refers to a quotient of directional permeabilities that is used to spot active efflux.

Values taken from patent US12303509B2, “Compounds for the treatment of BRAF-associated diseases and disorders” (Pfizer Inc., priority 2020, dated 2025).
